Results on four compounds are retold here after ChEMBL document CHEMBL1137930, “Critical structural motif for the catalytic inhibition of human topoisomerase II by UK-1 and analogs” (Bioorg Med Chem Lett, 2004).

SMILES strings stand for the structures. Bounds are passed on as bounds.

The target in assay [1] is T1, DNA topoisomerase 2-alpha (Homo sapiens, UniProt P11388). The assay can be described thus: Inhibitory concentration against human DNA topoisomerase II, alpha mediated relaxation of pBR322.
T1 sequence (P11388 whole entry): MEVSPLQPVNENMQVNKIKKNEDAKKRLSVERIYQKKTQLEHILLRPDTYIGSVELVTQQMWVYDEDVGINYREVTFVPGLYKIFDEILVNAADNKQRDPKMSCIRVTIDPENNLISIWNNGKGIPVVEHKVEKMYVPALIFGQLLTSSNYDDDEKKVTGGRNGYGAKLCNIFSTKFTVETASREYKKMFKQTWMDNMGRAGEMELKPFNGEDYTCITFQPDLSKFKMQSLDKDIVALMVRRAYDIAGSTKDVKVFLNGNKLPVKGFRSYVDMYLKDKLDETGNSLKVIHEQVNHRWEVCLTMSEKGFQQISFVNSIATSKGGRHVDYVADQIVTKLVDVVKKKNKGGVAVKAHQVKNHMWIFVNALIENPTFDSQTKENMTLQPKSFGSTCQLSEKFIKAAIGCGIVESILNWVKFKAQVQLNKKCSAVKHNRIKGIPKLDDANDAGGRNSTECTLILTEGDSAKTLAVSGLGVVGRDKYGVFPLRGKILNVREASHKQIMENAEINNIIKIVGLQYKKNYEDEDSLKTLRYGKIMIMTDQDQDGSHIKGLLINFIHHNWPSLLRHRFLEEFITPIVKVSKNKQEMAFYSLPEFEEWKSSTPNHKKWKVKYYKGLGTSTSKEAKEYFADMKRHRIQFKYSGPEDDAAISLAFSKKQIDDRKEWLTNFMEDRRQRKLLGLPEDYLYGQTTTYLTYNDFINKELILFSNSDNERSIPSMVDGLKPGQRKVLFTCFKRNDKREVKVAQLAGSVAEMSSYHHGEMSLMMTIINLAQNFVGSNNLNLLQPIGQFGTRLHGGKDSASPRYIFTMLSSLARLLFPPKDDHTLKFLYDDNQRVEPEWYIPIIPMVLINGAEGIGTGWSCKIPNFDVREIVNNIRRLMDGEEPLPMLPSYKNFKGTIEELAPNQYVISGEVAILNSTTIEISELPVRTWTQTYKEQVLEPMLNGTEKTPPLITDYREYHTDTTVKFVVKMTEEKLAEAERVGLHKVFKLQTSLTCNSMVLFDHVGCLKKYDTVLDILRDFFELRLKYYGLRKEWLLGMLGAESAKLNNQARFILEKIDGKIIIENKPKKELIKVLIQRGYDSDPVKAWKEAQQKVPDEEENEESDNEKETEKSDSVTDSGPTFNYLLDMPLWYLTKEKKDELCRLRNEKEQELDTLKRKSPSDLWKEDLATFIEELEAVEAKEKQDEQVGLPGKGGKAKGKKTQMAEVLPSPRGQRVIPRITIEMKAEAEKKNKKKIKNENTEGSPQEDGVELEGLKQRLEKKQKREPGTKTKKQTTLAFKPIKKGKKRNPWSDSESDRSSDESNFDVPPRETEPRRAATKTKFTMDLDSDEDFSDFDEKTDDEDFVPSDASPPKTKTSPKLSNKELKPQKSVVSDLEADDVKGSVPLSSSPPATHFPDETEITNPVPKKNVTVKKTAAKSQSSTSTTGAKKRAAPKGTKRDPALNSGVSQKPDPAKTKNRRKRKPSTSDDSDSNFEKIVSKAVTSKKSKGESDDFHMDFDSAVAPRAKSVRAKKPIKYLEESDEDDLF
A further assay deals with HL-60. The assay can be described thus: Cytotoxicity of compound against HL60 cell line. In kind it is functional, cell-based. To be noted: Homo sapiens.
A further assay relates to P388. The assay can be described thus: Inhibitory activity of compound against P388 murine cell line; range is 0.3 uM-1.6 uM. In kind it is functional, cell-based. To be noted: Mus musculus.
For a further assay, the system named is PC-3. The assay can be described thus: Cytotoxicity of compound against PC-3 cell line. The assay is classed as functional, cell-based. To be noted: Homo sapiens.
In assay [2] the target is T1, DNA topoisomerase 2-alpha. The assay can be described thus: Inhibitory activity of compound against human DNA topoisomerase II, alpha was evaluated by ability to interfere with the relaxation of supercoiled plasmid DNA.
Assay [3] deals with T1, DNA topoisomerase 2-alpha. The assay can be described thus: Inhibitory concentration against human DNA topoisomerase II, alpha mediated relaxation of pBR322; no measurable activity.

With `COC(=O)c1cccc2oc(-c3cccc4oc(-c5ccccc5)nc34)nc12`, half-maximal inhibition in assay [1] (IC50) required 38 µM.
In the case of `COC(=O)c1cccc2oc(-c3cccc4oc(-c5ccccc5O)nc34)nc12`, the IC50 worked out at 0.32 µM in the assay with HL-60; 0.3 µM in the assay on P388; 50 µM in assay [1]; 0.4 µM in the assay on PC-3; 32 µM in assay [2].
Turning to `Oc1ccccc1-c1nc2c(-c3nc4ccccc4o3)cccc2o1`, the IC50 in assay [1] and in assay [2] was 20 µM in each case.
`c1ccc(-c2nc3c(-c4nc5ccccc5o4)cccc3o2)cc1`: the IC50 in assay [3] is over 100 µM.
